Test results reported in article PMC9503518, “Antibacterial and Antifungal Properties of a Novel Antimicrobial Peptide GK-19 and Its Application in Skin and Soft Tissue Infections Induced by MRSA or Candida albicans” (Pharmaceutics, 2022).
Converted amounts (≈) assume the structure as drawn. Counter-ions that a name gives are not always drawn. Where no end group is shown, it is not given here.

How the values were obtained:
[1] = test system: Candida albicans (C. albicans, ATCC90028); format: cell-based; details: 1 × 10^6 CFU/mL, PDB, 12 h, peptide 0-20 μM, absorbance at 600 nm, n = 5
Text: (§1) Pseudomonas aeruginosa (P. aeruginosa, ATCC27853), Methicillin-Resistant Staphylococcus aureus (MRSA, 2104270609, clinically isolated strain), Escherichia coli (E. coli, ATCC25922), Klebsiella pneumoniae (K. pneumoniae, ATCC700603), Enterococcus faecalis (E. faecalis, ATCC29212), Candida krusei (C. krusei, ATCC6258), Candida albicans (C. albicans, ATCC90028), and Candida glabrata (C. glabrata, ATCCMYA-2950) were obtained from the First Affiliated Hospital of Xi’an Jiaotong University. Bacterial strains were cultured in MHA or MHB. Fungal strains were cultured in PDA or PDB.
(§2) Strains were incubated in MHB or PDB. After growing for 12–16 h at 37 °C, 200 rpm, 100 μL of 1 × 10^6 CFU/mL of the strains was seeded into 96-well plates and incubated with fresh culture medium containing various antimicrobial peptides (peptide concentration: 0, 0.5, 1.0, 2.0, 3.0, 5.0, 10, 15 or 20 μM) for 12 h. Each concentration was repeated five times. Absorbance at 600 nm was measured using the Multilabel Reader Varioskan Flash (Thermo Fisher). […] (1)

[2] = test system: Candida glabrata (C. glabrata, ATCCMYA-2950); format: cell-based; details: 1 × 10^6 CFU/mL, PDB, 12 h, peptide 0-20 μM, absorbance at 600 nm, n = 5
Text: as §1, §2

[3] = test system: Candida krusei (C. krusei, ATCC6258); format: cell-based; details: 12 h, absorbance at 600 nm, n = 5
Text: as §1, §2

[4] = test system: Enterococcus faecalis (E. faecalis, ATCC29212); format: cell-based; details: 1 × 10^6 CFU/mL, MHB, 12 h, peptide 0-20 μM, absorbance at 600 nm, n = 5
Text: as §1, §2

[5] = test system: Escherichia coli (E. coli, ATCC25922); format: cell-based; details: 1 × 10^6 CFU/mL, MHB, 12 h, peptide 0-20 μM, absorbance at 600 nm, n = 5
Text: as §1, §2

[6] = test system: Klebsiella pneumoniae (K. pneumoniae, ATCC700603); format: cell-based; details: 1 × 10^6 CFU/mL, MHB, 12 h, peptide 0-20 μM, absorbance at 600 nm, n = 5
Text: as §1, §2

[7] = test system: Methicillin-Resistant Staphylococcus aureus (MRSA, 2104270609, clinically isolated strain); format: cell-based; details: 1 × 10^6 CFU/mL, MHB, 12 h, peptide 0-20 μM, absorbance at 600 nm, n = 5
Text: as §1, §2

[8] = test system: Pseudomonas aeruginosa (P. aeruginosa, ATCC27853); format: cell-based; details: 1 × 10^6 CFU/mL, MHB, 12 h, peptide 0-20 μM, absorbance at 600 nm, n = 5
Text: as §1, §2

[9] = Peptide stability in water by HPLC; format: physicochemical; details: 10 mg/mL in water, 37 °C, 200 rpm, 0 and 48 h, HPLC 220 nm, repeated three times
Experimental: (§3) Antimicrobial peptides were dissolved in water or rat serum with a concentration of 10 mg/mL. The solution was incubated at 37 °C, 200 rpm for different time periods, and diluted 50 times for the HPLC analysis. In water, the incubation time was 0 h and 48 h. In rat serum, the incubation time was 0, 2, 4, 7, 12, 24 or 48 h. Each incubation condition was repeated three times. HPLC was conducted on a Waters HPLC system, which consisted of a 2996 photodiode array detector, a 2695 separation module and a temperature control column oven. Column: Sinochrom ODS-BP, 5 μm, 4.6 × 250 mm (Dalian Elite Analytical Instruments Co., Ltd., Dalian, China). Mobile phase: A: 100% ACN + 0.1% TFA; B: 100% Water + 0.1% TFA. Gradient elution: 0–20 min, 95% B–100% A; 20–25 min, 100% A. Detection wavelength: 220 nm. Flow rate: 1 mL/min. Sample volume: 50 μL (0.2 mg/mL).

[10] = Peptide stability in rat serum by HPLC; format: in vitro ADME; details: 10 mg/mL in rat serum, 37 °C, 200 rpm, repeated three times
Experimental: as §3

MRSA = test system: MRSA
Experimental: (§4) The scalded mice models combined with SSTIs by MRSA or C. albicans were constructed. Fifty normal male Kunming mice (5–6 weeks old) weighing ~25 g were anesthetized by isoflurane using a small animal anesthesia machine (R640, RWD Life Science, China). After skin preparation and disinfection, a custom-made circular iron (diameter: 8 mm) (shown in Figure S4) was applied to both sides of the spine of the mice for 10 s at 300 °C, resulting in four scalded wounds. Mice were injected subcutaneously with 5 mg/kg meloxicam (Aladdin, Shanghai, China) for four days (once per day) after scalding for pain relief. Two days after scalding, the skin tissues of the scalded areas were removed carefully, and about 30 μL of 1 × 10^7 CFU/mL of MRSA or C. albicans was applied evenly onto the surfaces of the wounds. The mice were returned to the original feeding environment after the microbial fluid was completely absorbed (1.5–2 h), with two mice per cage. Corncob granules with SPF level were used as padding.
(§5) Two days after microbe inoculating, the scalded wounds of each mouse were divided into four groups randomly. […] The mice were returned to the original feeding environment after the solutions were completely absorbed. The treatment lasted for 12–16 days. Photographs of the wound areas were taken every two days using an iPhone 11 and the wound areas were measured every two days using Image J software (152-win-java8, Bethesda, MD, USA). The average wound areas on day two were used as the reference (100% unhealed) to normalized wound areas. Skin tissues of the wound areas were removed carefully at different time points (n = 5 for each time point) and weighted in a sterile environment. For MRSA infection, 10 mg of the wound tissues was dispersed into 1000 μL of sterile saline solution and the tissue solution was ground into suspension in a tissuelyser (Tissuelyser LT, Servicebio). Then, the tissue suspension was diluted with sterile saline solution 10 times and plated on MHA with a sample volume of 50 μL. For C. albicans infection, 10 mg of the wound tissues was dispersed into 200 μL of sterile saline solution and the tissue solution was also ground into suspension in the tissuelyser. The tissue suspension was then plated on PDA directly with a sample volume of 20 μL. After culturing overnight, the colonies were counted using Image J software or human eyes. In addition, the skin tissues of the wound area were removed carefully at different time points and dispersed into a 4% paraformaldehyde solution for further use.
(§6) The hematoxylin and eosin staining in this study was carried out by Servicebio (Wuhan, China). Briefly, the obtained skin tissues were soaked in 4% paraformaldehyde solution (Beyotime, China) and fixed for more than 24 h. Then, they were dehydrated and embedded with paraffin, and tissue sections having thicknesses of 4 μm were prepared. After deparaffinization and rehydration, hematoxylin and eosin staining was performed.

[11] = unstable in serum; cited from earlier work
Text: The venom of scorpions, which has been proven to kill Gram-negative and Gram-positive bacteria, fungi, viruses and even tumor cells, are a rich source of antimicrobial peptides. Androctonus amoreuxi Antimicrobial Peptide 1 (AamAP1), identified from the venom-derived cDNA library of the North African scorpion, Androctonus amoeruxi, is a new type of host defense peptide. With broad-spectrum antimicrobial properties, it has been posited that AamAP1 kills bacteria cells through membrane disruption, which will not induce bacterial resistance. However, there are still some disadvantages in us ...

C. albicans = details: topical 50 μM twice a day
Experimental: as §4, §5, §6

[12] = C. albicans-infected scald wounds, mice, n = 10
[13] = colony count of wound tissue on PDA, n = 5

## CC[C@H](C)[C@H](NC(=O)[C@H](C)NC(=O)[C@H](Cc1c[nH]cn1)NC(=O)[C@@H]1CCCN1C(=O)[C@@H](NC(=O)[C@H](CC(C)C)NC(=O)[C@H](CO)NC(=O)[C@H](Cc1ccccc1)NC(=O)[C@H](CC(C)C)NC(=O)[C@@H](N)Cc1ccccc1)[C@@H](C)CC)C(=O)NCC(=O)NCC(=O)N[C@@H](CC(C)C)C(=O)N[C@H](C(=O)N[C@@H](CO)C(=O)N[C@@H](C)C(=O)N[C@@H](Cc1ccccc1)C(=O)N[C@@H](CCCCN)C(=O)O)[C@@H](C)CC [AamAP1, Androctonus amoreuxi Antimicrobial Peptide 1, reference compound]
[1]
  Minimum inhibitory concentration (MIC), C. albicans: > 20 µM
[2]
  Minimum inhibitory concentration (MIC), C. glabrata: > 20 µM
[3]; 1 × 10^6 CFU/mL, PDB, peptide 0-20 μM
  Minimum inhibitory concentration (MIC), C. krusei: 20 µM (≈ 38.6 µg/mL)
[3]; within 0-20 μM
  inhibition of C. krusei: 90%
[4]
  Minimum inhibitory concentration (MIC), E. faecalis: > 20 µM
[5]
  Minimum inhibitory concentration (MIC), E. coli: > 20 µM
[6]
  Minimum inhibitory concentration (MIC), K. pneumoniae: > 20 µM
[7]
  Minimum inhibitory concentration (MIC), MRSA: > 20 µM
[8]
  Minimum inhibitory concentration (MIC), P. aeruginosa: > 20 µM
[9]
  time for which structural stability was retained in water: ≥ 48 h
[10]; 7 h, HPLC peak area 220 nm, read-out: peptide degraded after seven hours of co-incubation with rat serum
  metabolised at 7 h, 10 mg/mL: > 65%
[10]; two hours, HPLC 220 nm
  change of HPLC peak after incubation in rat serum for two hours: position of its chromatographic peak moved backward
MRSA; mouse, in vivo, 2 h, 50 μM
  MRSA suppressed (inhibition rate) at day eight compared with saline solution groups: more than 90%
[11]
  predicted half-life: less than two hours

## CCC[C@@H]1C[C@@H](C(=O)N[C@@H]([C@H]2O[C@H](SC)[C@H](O)[C@@H](O)[C@H]2O)[C@H](C)Cl)N(C)C1 [CDHC, clindamycin hydrochloride]
MRSA; MRSA-infected scald wounds, mice, topical 50 μM twice a day, day 2 area = 100% unhealed, n = 10
  wound area healed on day eight: more than 45%
MRSA; MRSA-infected scald wounds, mice, topical 50 μM twice a day, n = 10
  unhealed wounds on day 16: completely disappeared

## OC(Cn1cncn1)(Cn1cncn1)c1ccc(F)cc1F [FCZ, fluconazole]
C. albicans; [12]
  area of the wounds healed on day 10: more than 95%
  unhealed wounds on day 12: completely disappeared
C. albicans; [13]
  C. albicans in wound tissue on day 12: no C. albicans detected
  C. albicans suppressed (inhibition rate) at day eight compared with saline solution groups: ~ 98%

## FLFKLIPKAIKKLISKFK [AamAP1-Lysine]
[11]
  predicted half-life: less than two hours
